From US9079854B2 (priority 2007, dated 2015)
Entries after “also recorded” stand apart in the source; their conditions may differ. Like-named read-outs stand apart in the source and are kept apart here.

Experiments:
hCB2 receptor = target: T1, hCB2 receptor (Homo sapiens, UniProt P34972); assay: CB2 functional assay, [35S]GTP-γ-S binding; format: biochemical
T1 construct: purchased ES-111-MG; host or cells: CHO membrane extracts

exploratory behavior = assay: Open field chamber testing; format: in vivo, rat; details: 15 mg/kg i.p.; versus vehicle; scored for 60 minutes; rats
Method: The automated open-field chamber (Med Associates ENV-515 Test Environment, St. Albans, Vt.) 43.2×43.2×30.5 cm (L×W×H) equipped with three pairs of 16 infrared arrays that continually monitored the animal's movement was used to determine potential CNS effects of compound of Example 6 and the vehicle in naïve rats. Rats were individually tested 15 min after i.p. drug administration. The infrared beams were set 2.5 cm apart horizontally and at a height of 3 cm above the floor, with the rearing array set at 12 cm from the floor. The area in the box was divided into 4 equal quadrants (zones), with data collected within each quadrant and across quadrants (zone entries). An ambulatory movement was defined as a motion of at least 5 cm and was coded by quadrant. Vertical movements were counted when the rat moved vertically a minimum of 12 cm from the floor. Zone entries were defined as an entry into a zone (from another zone). Entry into a zone was counted when the rat was far enough into the zone to break 2 sets of photoelectric beams for the new zone beams during an ambulatory movement.

[1] = target: T2, human CB2 (hCB2) receptor (Homo sapiens, UniProt P34972); assay: CB2 binding assay, competitive binding of [3H]WIN 55212-2
T2 construct: expressed in transfected cells; host or cells: CHO (Chinese hamster ovary) cells, membranes
Method in brief: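 CHO cell membranes expressing hCB2 (15 μg protein) incubated 120 min at 37° C with 0.8 nM [3H]WIN 55212-2 in 50 mM HEPES/Tris pH 7.4, 5 mM MgCl2, 2.5 mM EGTA, 0.1% BSA; nonspecific binding with 10 μM WIN 55212-2. Filtration and scintillation counting; compounds at 1 μM, reported as % inhibition of control specific binding.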

[2] = target: T3, human CB1 (hCB1) receptor (Homo sapiens, UniProt P21554); assay: CB1 binding assay, competitive binding of [3H]CP 55940; set-up: % Inhibition of Control Specific Binding CB1: concentration or dose not given beside the values
T3 construct: expressed in transfected cells; host or cells: CHO (Chinese hamster ovary) cells, membranes
Method in brief: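 CHO cell membranes expressing human CB1 (25 μg protein) incubated 120 min at 37 °C with 0.5 nM [3H]CP 55940 in Tris-HCl pH 7.4 buffer with MgCl2, EDTA, 0.3% BSA. Filtration and scintillation counting; compound tested at 1 μM, given as percent inhibition of control specific binding.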

CB1 = CB1 (Homo sapiens, UniProt P21554); assay: CB1 functional assay, [35S]GTP-γ-S binding; format: biochemical; set-up: purchased ES-110-MG; host or cells: CHO membrane extracts
Method: A dose response curve was generated at eight concentrations in duplicate on CB1 and CB2 in light of reference agonists.
Membranes (CB1, ES-110-MG or CB2, ES-111-MG) are mixed with GDP (volume:volume) and incubated for at least […] on ice. In parallel, […] are mixed with the beads (volume:volume) just before starting the reaction. The following reagents are successively added in the wells of an Optiplate: 50 μl of ligand, 20 μl of the membranes:GDP mix, 10 μl of assay buffer for agonist testing and 20 μl of the […]: beads mix. The plates are covered with a topseal, shaken on an orbital shaker for 2 min, and then incubated between 30 to 60 min at room temperature. Then the plates are centrifuged for 10 min at 2000 rpm, incubated at room temperature between 1 to 4 hours and counted for 1 min with a PerkinElmer TopCount reader.
Functional activity for acyl hydrazone was evaluated using [^35S]GTP-γ-S assay in CHO membrane extracts expressing recombinant hCB1 receptor or hCB2 receptor. The assay relies on the binding of [^35S]GTP-γ-S, a radiolabeled nonhydrolyzable GTP analogue, to the G protein upon binding of an agonist of the G-protein-coupled receptor. In this system, agonists stimulate [^35S]GTP-γ-S binding whereas neutral antagonist have no effect and inverse agonists decrease [^35S]GTP-γ-S basal binding.
CB1 and CB2 assay data are presented as the mean of two determinations. […] For replicate determinations, the maximum variability tolerated in the test was of ±20% around the average of the replicates.

[3] = Table 7, relative to the efficacy of CP55940
[4] = Table 9, relative to the efficacy of CP 55,940

T3 sequence (P21554 whole entry): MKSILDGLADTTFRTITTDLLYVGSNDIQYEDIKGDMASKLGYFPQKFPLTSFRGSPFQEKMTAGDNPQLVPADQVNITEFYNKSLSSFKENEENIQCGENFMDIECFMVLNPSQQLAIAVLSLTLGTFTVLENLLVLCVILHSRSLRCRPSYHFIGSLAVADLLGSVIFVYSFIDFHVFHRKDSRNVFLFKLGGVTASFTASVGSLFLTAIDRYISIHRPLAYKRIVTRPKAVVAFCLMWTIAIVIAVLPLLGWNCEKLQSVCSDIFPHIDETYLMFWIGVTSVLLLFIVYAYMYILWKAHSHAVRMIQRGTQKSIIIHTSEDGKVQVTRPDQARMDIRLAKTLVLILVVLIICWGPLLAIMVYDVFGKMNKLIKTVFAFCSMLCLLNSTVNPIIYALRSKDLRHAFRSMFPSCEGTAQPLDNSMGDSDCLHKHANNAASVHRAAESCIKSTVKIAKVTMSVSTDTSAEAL
Chain of CB1 (P21554 whole entry): as above
T2 sequence (P34972 whole entry): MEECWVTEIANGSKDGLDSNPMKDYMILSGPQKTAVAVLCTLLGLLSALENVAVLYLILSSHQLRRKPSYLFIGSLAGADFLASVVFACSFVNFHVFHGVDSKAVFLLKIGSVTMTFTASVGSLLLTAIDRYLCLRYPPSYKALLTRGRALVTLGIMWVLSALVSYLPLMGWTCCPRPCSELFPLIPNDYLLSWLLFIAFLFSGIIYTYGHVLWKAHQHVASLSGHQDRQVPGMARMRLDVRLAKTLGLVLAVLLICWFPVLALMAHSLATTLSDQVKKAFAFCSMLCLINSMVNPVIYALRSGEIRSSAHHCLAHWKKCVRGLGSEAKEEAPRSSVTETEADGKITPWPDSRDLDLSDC
T1 sequence (P34972 whole entry): as above

CCCCCCN1C(=O)/C(=N\NC(=O)c2ccccc2)c2ccccc21 [Example 6, Benzoic acid [1-n-hexyl-2-oxo-1,2-dihydro-indol-3-ylidene]-hydrazide]
% Activation Average (hCB2 receptor; CB2 Functional Activity): 68.81%
Compound Activity (hCB2 receptor; CB2 Functional Activity): Agonist
EC50 (hCB2 receptor; CB2 Functional Activity, read-out: EC50 (nM) for GTP Binding): 63.4 nM
ratio EC50(CB1)/EC50(CB2) (hCB2 receptor; CB2 receptor selectivity, [35S]GTP-γ-S): 14
EC50 (hCB2 receptor; Table 7, mean of two determinations, read-out: [35S]GTP-γ-S (hCB2) EC50 (nM ± SEM)): 63.4 ± 1.3 nM
Emax (hCB2 receptor; [3]): 68.8%
EC50 (hCB2 receptor; Table 9, mean of two determinations, read-out: [35S]GTP-γ-S hCB2 EC50 (nM ± SEM)): 63.4 ± 1.3 nM
Emax (hCB2 receptor; [4]): 68.8%
times less potent compared to the reference compound CP55,940 (hCB2 receptor; functional activity, [35S]GTP-γ-S): seven
exploratory behavior in the open field (distance traveled, ambulatory time, vertical activity, zone entries) (exploratory behavior): No significant differences; also recorded: did not decrease the exploratory behavior
% Inhibition of Control Specific Binding ([1]; CB2, Test Concentration 1.0E−05 (MD)): 93%
% of Control Specific Binding 1st ([1]; CB2, Test Concentration 1.0E−05 (MD), 1st determination): −1.5%
% of Control Specific Binding 2nd ([1]; CB2, Test Concentration 1.0E−05 (MD), 2nd determination): 15.9%
% of Control Specific Binding Mean ([1]; CB2, Test Concentration 1.0E−05 (MD), mean): 7.2%
% Inhibition of Control Specific Binding CB2 ([1]; Table 4, concentration not given): 93%
inhibition at 1 µM ([1]; read-out: % inhibition hCB2 receptor, at 1 μM, specific binding of [3H]-WIN55212-2, CHO membranes): 92.8 ± 8.7%
inhibition at 10 µM ([1]; read-out: % inhibition hCB2 receptor, at 10 μM, specific binding of [3H]-WIN55212-2): 92.8 ± 8.7%
% Inhibition of Control Specific Binding ([2]; CB1, Test Concentration 1.0E−05 (MD)): 96%
% of Control Specific Binding 1st ([2]; CB1, Test Concentration 1.0E−05 (MD), 1st determination): 4.5%
% of Control Specific Binding 2nd ([2]; CB1, Test Concentration 1.0E−05 (MD), 2nd determination): 4.5%
% of Control Specific Binding Mean ([2]; CB1, Test Concentration 1.0E−05 (MD), mean): 4.5%
% Inhibition of Control Specific Binding CB1 ([2]; Table 3, concentration not given): 96%
inhibition at 1 µM ([2]; at 1 μM, specific binding of [3H]-CP55940, CHO membranes): 95.5%
inhibition at 10 µM ([2]; at 10 μM, specific binding of [3H]-CP55940): 95.5%
% Activation Average (CB1; CB1 Functional Activity): 59.65%
Compound Activity (CB1; CB1 Functional Activity): Agonist
EC50 (CB1; CB1 Functional Activity, read-out: EC50 (nM) for GTP Binding): 867 nM
EC50 (CB1; Table 7, mean of two determinations, read-out: [35S]GTP-γ-S (hCB1) EC50 (nM ± SEM)): 867 ± 1.1 nM
Emax (CB1; [3]): 59.7%
EC50 (CB1; Table 9, mean of two determinations, read-out: [35S]GTP-γ-S hCB1 EC50 (nM ± SEM)): 867 ± 1.1 nM
Emax (CB1; [4]): 59.7%
